pIC50: −log10 of the molar value.
What was measured:
[1] = target: T1, kappa opioid receptor (KOR) (Homo sapiens, UniProt P41145); test: OPRKappa 1 Tango B-Arrestin Assay, antagonist mode (Tango OPRK1-bla U2OS cells, U50488 EC80 challenge); format: cell-based; settings: for Selectivity (MOR/KOR): Kappa selectivity, MOR IC50 / KOR IC50; for pIC50: antagonist mode, Tango OPRK1-bla U2OS cells, 6 nM U50488 challenge
T1 construct: host or cells: U2OS (Tango OPRK1-bla U2OS)
Source text: OPRKappa 1 Tango B-Arrestin Assay Protocol-Antagonist Mode. […] The assay uses Tango OPRK1-bla U2OS cells which express OPRK1 linked to a GAL4-VP16 transcription factor via a TEV protease site. The cells also express a β-arrestin/TEV protease fusion protein and a β-lactamase (BLA) reporter gene under the control of a UAS response element. Stimulation of the OPRK1 receptor by agonist causes migration of the β-arrestin fusion protein to the GPCR, and through proteolysis liberates GAL4-VP16 from the receptor. The liberated VP16-GAL4 migrates to the nucleus, where it induces transcription of the BLA gene. BLA expression is monitored by measuring fluorescence resonance energy transfer (FRET) of a cleavable, fluorogenic, cell-permeable BLA substrate. As designed, test compounds that are OPRK1 antagonists inhibit agonist activation and migration of the fusion protein, thus preventing proteolysis of GAL4-VP16 and BLA transcription, leading to no increase in well FRET. Compounds were tested in quadruplicate using a 10-point, 1:3 dilution series starting at a nominal concentration of 10 micromolar.
The Tango OPRK1-U20S Dividing cell line was routinely cultured in 150 mm dishes at 37C, 5% CO2 and 95% relative humidity (RH).
On Day 1 of the assay, 16,000 cells in 10 μL of assay media (DMEM-Glutamax—with Sodium Pyruvate, 10% fetal bovine serum stripped with charcoal-dextran (CDS), 25 mM HEPES, 0.1 mM non-essential amino acids, antibiotic mix (penicillin streptomycin)) were seeded into each well of a 384 Greiner 788092 black low profile, clear bottom, low volume plate, and incubated 16-24 hours at 37° C., 5% CO2 and 95% (RH).
On Day 2, 50 nL of test compound in DMSO was added to the appropriate wells and plates were incubated for 30 min at 37° C. 5% CO2 and 95% (RH). Next was added 0.65 μL of commercially available U50488 OPRK1 agonist or DMSO in assay media: this EC80 Challenge consists of 0.6 μL of 111 nM U50488 to yield a final assay concentration of 6 nM). After incubation for 4 hours at 37° C., 5% CO2 and 95% (RH), 2.5 μL of LiveBLazer™FRET B/G (CCF4-AM) Mix (Soln.'s A,B,C,&D) was added to each well and incubated at room temperature in the dark for 2 hours. Well fluorescence was measured on Perkin Elmer's Envision using an Excitation filter 409 nm, Emission filters at 460 nm and […], bottom read.
(§1) The Percent Inhibition was calculated from the median ratio as follows:
• Tango™OPRK1-bla U20S Cells (Invitrogen K1576) • McCoy's 5A Medium, (Invitrogen 16600-082) • Dialyzed Fetal Bovine Serum, (Invitrogen 26400-036) • Non Essential Amino Acids 100× (Invitrogen part 11140-050) • HEPES (pH 7.3) 1M, (Invitrogen 15630-080) • Sodium Pyruvate 100× (Invitrogen 11360-070) • Penicillin Streptomycin, (Invitrogen 15640) • Trypsin 0.25% EDTA (Invitrogen 25200056) • DPBS without Calcium/Magnesium (Invitrogen 14190-136) • DMEM, High Glucose, GlutaMAX (Invitrogen 10569-010) • Fetal Bovine Serum, Charcoal Stripped (Invitrogen 12676-011) • DMSO Dry (Sigma D2650) • U50488 OPRK1 Agonist MW410.29 (Tocris 67198-19-0) • GNTI dihydrochloride OPRK1 Antagonist MW571.5 (Tocris 1282) • Nor-Binaltorphimine dihydrochloridc MW770.75 (Tocris 0347)
LiveBLAzere™-FRET/BG Loading Mix: (Invitrogen K1030 (5 mg)), composed of Solutions A, B, C, and D: • Solution A (6 μL): LiveBLAzer™-FRET/BG Substrate (CCF4-AM) • Solution B (60 μL) • Solution C (904 μL) • Solution C (must add 250 μl of 1N NaOH to 45 mL of Solution C prior to use) • Solution D (30 μL) [Probinicid] (Sigma P8161) make 200 mM stock in NaOH—H2O.

mu opioid receptor (MOR) = target: T2, mu opioid receptor (MOR) (Homo sapiens, UniProt P35372); test: OPRMu1 Discover X β-arrestin Assay, antagonist mode (U2OS cells, DAMGO EC80 challenge); format: cell-based
T2 construct: host or cells: U2OS (Discover X OPRMu1-U2OS, PathHunter)
Source text: OPRMu1 Discover X—β-arrestin Assay—Antagonist Mode. […] This assay evaluates the OPRMu1 activation in membrane recruitment of β-arrestin. In addition, the assay evaluates GPCR-β-arrestin proximity using low affinity fragment complementation of beta-galactosidase (beta-gal). The assay employs U20S cells, which express OPRMu1 fused to the complementary beta-gal fragment (enzyme acceptor). As designed, compounds that act as antagonists will prevent receptor activation resulting in reduced well luminescence. Compounds were tested in quadruplicate using a 10-point, 1:3 dilution series starting at a nominal concentration of 10 micromolar.
The Discover X OPRMu1-U20S cell line was cultured in 150 mm dishes at 37° C., 5% CO2 and 95% relative humidity (RH).
On Day 1 of the assay, 5000 cells in 20 μL of assay buffer (Discover X's Cell Plating Reagent 5) were seeded into each well of a 384 Corning 3570 standard white plate, and incubated 16-24 hours at 37° C., 5% CO2 and 95% RH.
On Day 2, 100 nL of test compound in DMSO were added to the appropriate wells and the plates were then incubated for 30 min at 37° C. 5% CO2 and 95% RH. Next, 2.2 μL of DAMGO OPRMu1 agonist (commercially available) or DMSO in assay media. (The EC80 Challenge consists of 1.8 μL of 3.7 μM DAMGO, 0.4 μL of Assay Buffer, with a final assay concentration of 303 nM). After incubation for 3 hours at 37° C. 5% CO2, and 95% RH, 10 μL of Path Hunter Detection Mix was added to each well, and the plate was then incubated at room temperature in the dark for 1 hour. Well luminescence was measured on Perkin Elmer's Envision.
as §1
• DMEM Medium, (Invitrogen 11965) • F12 Medium, (Invitrogen 11765) • Heat Inactivated Fetal Bovine Serum, (Invitrogen 10082147) • Non Essential Amino Acids 100× (Invitrogen 11140-050) • HEPES (pH 7.3) 1M, (Invitrogen 15630-080) • Sodium Pyruvate 100× (Invitrogen 11360-070) • Penicillin Streptomycin, (Invitrogen 15640) • Trypsin 0.25% EDTA (Invitrogen 25200056) • DPBS without Calcium/Magnesium (Invitrogen 14190-136) • DMSO Dry (Sigma D2650) • DAMGO OPRMu1 Agonist MW513.19 (Sigma E7384-5MG) • B-Funaltrexamine Hydrochloride OPRM1 Antagonist MW (SIGMA 0003-2MG) • PathHunter Cell Plating 5 Reagent (Discover X 93-0563R5A) • Corning 3750 Standard 384 well white plate with lid.
PathHunter Detection Mix (DiscoverX 93-0001): 1 part Galacton Star/5 parts Emerald II/19 parts PH Cell Assay Buffer.

T1 sequence (P41145 whole entry): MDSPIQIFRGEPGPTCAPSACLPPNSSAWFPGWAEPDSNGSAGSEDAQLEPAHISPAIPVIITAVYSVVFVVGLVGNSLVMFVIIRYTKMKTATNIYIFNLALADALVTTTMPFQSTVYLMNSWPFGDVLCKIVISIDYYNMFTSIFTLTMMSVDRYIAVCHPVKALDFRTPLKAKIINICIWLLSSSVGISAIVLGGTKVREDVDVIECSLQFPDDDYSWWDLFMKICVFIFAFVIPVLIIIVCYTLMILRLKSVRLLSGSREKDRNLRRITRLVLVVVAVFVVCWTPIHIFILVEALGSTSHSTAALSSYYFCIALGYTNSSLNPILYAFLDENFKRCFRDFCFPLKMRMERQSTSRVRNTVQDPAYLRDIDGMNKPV
T2 sequence (P35372 whole entry): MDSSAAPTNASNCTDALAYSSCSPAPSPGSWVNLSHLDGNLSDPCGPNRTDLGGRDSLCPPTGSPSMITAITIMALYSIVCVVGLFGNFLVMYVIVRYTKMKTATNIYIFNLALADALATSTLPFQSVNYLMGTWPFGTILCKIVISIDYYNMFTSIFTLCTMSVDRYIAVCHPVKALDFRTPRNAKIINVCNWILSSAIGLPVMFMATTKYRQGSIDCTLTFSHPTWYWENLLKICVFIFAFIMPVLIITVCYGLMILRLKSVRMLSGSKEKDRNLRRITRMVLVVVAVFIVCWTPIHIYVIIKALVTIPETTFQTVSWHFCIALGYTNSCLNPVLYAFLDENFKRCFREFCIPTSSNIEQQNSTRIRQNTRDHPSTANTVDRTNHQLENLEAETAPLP

Row | SMILES | pIC50 [1] | pIC50 (mu opioid receptor (MOR)) | Selectivity (MOR/KOR) [1]
1 | CCc1cc(F)c2nc(N3CC[C@H](NC4CCOCC4)[C@H](F)C3)c(-c3ccn(C)n3)c(C)c2c1F [Compound 69] | 7.00 to 8.00 | < 6.00 | +++ (between 100- to 1000-fold selective)
2 | CCc1cc(F)c2nc(N3CCC(N[C@H]4COC[C@H]4F)CC3)c(-c3ccn(C)n3)c(C)c2c1 [Compound 72, 1-(6-ethyl-8-fluoro-4-methyl-3-(1-methyl-1H-pyrazol-3-yl)quinolin-2-yl)-N-((3S,4S)-4-fluorotetrahydrofuran-3-yl)piperidin-4-amine] | 7.00 to 8.00 | < 6.00 | ++ (between 10- and 100-fold selectivity)
3 | CCc1cc(F)c2nc(N3CCN(C4CCOCC4)C[C@@H]3C)c(-c3nc(C)no3)c(C)c2c1 (single isomer, unassigned) [Compound 28] | 8.00 to 9.00 | < 6.00 | ++++ (more than 1000-fold selectivity over MOR)
4 | CCc1cc(F)c2nc(N3CCN(CC4(O)CCOCC4)C[C@H]3C)c(-c3nc(C)no3)c(C)c2c1 [Compound 206] | 8.00 to 9.00 | < 6.00 | ++++ (more than 1000-fold selectivity over MOR)
5 | CCc1cc(F)c2nc(N3CCN(C4CC5(COC5)C4)C[C@H]3C)c(-c3nc(C)no3)c(C)c2c1 [Compound 41] | 7.00 to 8.00 | < 6.00 | +++ (between 100- to 1000-fold selective)
6 | Cc1cc(Cl)c2nc(N3CCN(CC4CCOCC4)C[C@H]3C)c(-c3nc(C)no3)c(C)c2c1 [Compound 51, (R)-5-(8-chloro-4,6-dimethyl-2-(2-methyl-4-((tetrahydro-2H-pyran-4-yl)methyl)piperazin-1-yl)quinolin-3-yl)-3-methyl-1,2,4-oxadiazole] | 8.00 to 9.00 | 6.00 to 7.00 | +++ (between 100- to 1000-fold selective)
7 | CCc1cc(F)c2nc(N3CC[C@H](N[C@@H]4CCOC4)[C@H](F)C3)c(-c3ccn(C)n3)c(C)c2c1 [Compound 194, (3R,4S)-1-(6-ethyl-8-fluoro-4-methyl-3-(1-methyl-1H-pyrazol-3-yl)quinolin-2-yl)-3-fluoro-N—((R)-tetrahydrofuran-3-yl)piperidin-4-amine] | 8.00 to 9.00 | < 6.00 | +++ (between 100- to 1000-fold selective)
8 | CCc1cc(F)c2nc(N3CCN(C(=O)[C@@H](C(C)C)N4CCCC4)C[C@H]3C)c(-c3nc(C)no3)c(C)c2c1 [Compound 148] | 8.00 to 9.00 | < 6.00 | +++ (between 100- to 1000-fold selective)

Now from value to molecule, other results behind:

Row | pIC50 [1] | pIC50 (mu opioid receptor (MOR)) | SMILES | Selectivity (MOR/KOR) [1]
9 | > 9.00 | 7.00 to 8.00 | CCc1cc(-c2ccnn2C)c2nc(N3CCC(NCC4(F)CCC4)CC3)c(-c3ccn(C)n3)c(C)c2c1 [Compound 90] | +++ (between 100- to 1000-fold selective)
10 | 8.00 to 9.00 | 6.00 to 7.00 | CCc1cc(F)c2nc(N3CCC(N[C@@H]4CCOC[C@H]4O)CC3)c(-c3cc(C)n(C)n3)c(C)c2c1 [Compound 17, (3S,4R)-4-((1-(3-(1,5-dimethyl-1H-pyrazol-3-yl)-6-ethyl-8-fluoro-4-methylquinolin-2-yl)piperidin-4-yl)amino)tetrahydro-2H-pyran-3-ol] | ++ (between 10- and 100-fold selectivity)
11 | 8.00 to 9.00 | < 6.00 | CCc1cc(F)c2nc(N3CCN(C(=O)[C@H]4CCCN4C)C[C@H]3C)c(-c3nc(C)no3)c(C)c2c1 [Compound 183] | ++++ (more than 1000-fold selectivity over MOR)
12 | 8.00 to 9.00 | 6.00 to 7.00 | CCc1cc(-c2ccnn2C)c2nc(N3CCC(N[C@@H]4CCOC[C@H]4F)CC3)c(-c3ccn(C)n3)c(C)c2c1 [Compound 22, 1-(6-ethyl-4-methyl-3-(1-methyl-1H-pyrazol-3-yl)-8-(1-methyl-1H-pyrazol-5-yl)quinolin-2-yl)-N-((3S,4R)-3-fluorotetrahydro-2H-pyran-4-yl)piperidin-4-amine] | ++ (between 10- and 100-fold selectivity)

Reference: patent US20260115185A1, “QUINOLINE DERIVATIVES WHICH ACT AS KAPPA-OPIOID RECEPTOR ANTAGONISTS” (The Scripps Research Institute, priority 2023, published 2026)
